The values that follow come from PMC11252453 (Acta Pharmaceutica Sinica. B, 2024).

As a reminder, the CC50 is the concentration giving 50% cytotoxicity. A word on the EC50: it is the concentration at which the effect is half-maximal.

The subject of series [1] is SARS-CoV-2 PLpro mediated IFNB expression. The series is classed as cell-based.
The next series relates to Vero E6 cells. Conditions: African green monkey.
The target of the next series is SARS-CoV-2 PLpro (Severe acute respiratory syndrome coronavirus 2, UniProt P0DTD1). Briefly: cell-based.

With `CCC(C(=O)Nc1cc(NC2CCNCC2)ccc1C)n1cc(Cl)cc2nc(SCc3ccc(F)cc3)nc1-2` (stereo not shown) [Compound 39], the “IFNB mRNA expression” value in series [1] is recorded as “fully restore IFNB expression”. Besides, in the series on Vero E6 cells, the CC50 was > 50 µM.

At SARS-CoV-2 PLpro, `CCC(C(=O)Nc1cc(NC2CCNCC2)ccc1C)n1cc(Br)cc2nc(SCc3ccc(F)cc3)nc1-2` (stereo not shown) [Compound 44] registered an EC50 of 3.81 ± 0.59 µM. With `CCC(C(=O)Nc1cc(NC2COC2)ccc1C)n1cc(Br)cc2nc(SCc3ccc(F)cc3)nc1-2` (stereo not shown) [Compound 45], the “IFNB mRNA expression” value in series [1] was “fully restore IFNB expression”.
